The source of these data is ChEMBL document CHEMBL3585249, “Strongylophorines, meroditerpenoids from the marine sponge Petrosia corticata, function as proteasome inhibitors” (Bioorg Med Chem Lett, 2015).

Structures are written as SMILES.

This assay in a line: Inhibition of human erythrocyte 20S proteasome assessed as reduction in chymotrypsin-like activity pre-incubated for 10 mins before addition of Suc-Leu-Leu-Val-Tyr-MCA fluorogenic substrate by fluorescence based assay.
A word on the IC50: it is the midpoint of a concentration-inhibition curve. `CO[C@H]1OC[C@]23CCC[C@@]1(C)C2CC[C@]1(C)C3CC[C@]2(C)Oc3ccc(O)cc3CC12` (some centres undefined): the half-maximal inhibitory concentration (IC50) was 6.6 µM.
The value for `CCO[C@H]1OC[C@]23CCC[C@@]1(C)C2CC[C@]1(C)C3CC[C@]2(C)Oc3ccc(O)cc3CC12` (some centres undefined) was 9.3 µM; that for `C[C@@]12CC[C@@H]3[C@]4(CCC[C@]3(C)C(O)OC4)[C@H]1CC[C@](C)(O)[C@H]2Cc1cc(O)ccc1O` (some centres undefined) was 2.1 µM; that for `C[C@@]12CC[C@@H]3[C@]4(CCC[C@]3(C)C(O)OC4)[C@H]1CC[C@]1(C)Oc3ccc(O)cc3C[C@@H]21` (some centres undefined) was 3.6 µM.
For `C[C@]12CCC[C@](C)(C(=O)O)[C@@H]1CC[C@]1(C)[C@@H]2CC[C@]2(C)Oc3ccc(O)cc3C[C@@H]12` [Strongylophorin-3], the 50% inhibitory concentration (IC50) is 9.5 µM.
The value for `CC1(C)CCC[C@]2(C)[C@H]3CC[C@]4(C)Oc5ccc(O)cc5C[C@H]4[C@]3(C)CC[C@@H]12` [Strongylophorin-22] was greater than 100 µM; that for `C[C@@]12CC[C@@H]3[C@]4(CCC[C@@]3(C)C(=O)OC4)[C@H]1CC[C@]1(C)Oc3ccc(O)cc3C[C@@H]21` [strongylophorine-2] was greater than 100 µM; that for `CC(=O)[C@@]1(C)CCC[C@]2(C)[C@H]3CC[C@]4(C)Oc5ccc(O)cc5C[C@H]4[C@]3(C)CC[C@H]21` [strongylophorine-4] was 19 µM.
For `C[C@@]12CC[C@@H]3[C@]4(CCC[C@]3(C)C(=O)OC4)[C@H]1CC[C@](C)(O)[C@H]2Cc1cc(O)ccc1O` [strongylophorine-8], the IC50 is 8.4 µM.
